In patent publication US10973815B2, “Delta opioid agonist mu opioid antagonist compositions and methods for treating Parkinsons disease” (priority 2016, dated 2021):
Entries after “also recorded” stand apart in the source; their conditions may differ.

Key:
[1] = system: unilateral 6-OHDA-lesioned Rats; assay: Postural asymmetry and dyskinesia (AIMs) on repeated dosing in unilateral 6-OHDA-lesioned rats; assay type: in vivo, rat; conditions: 3 mg/kg p.o. daily for 15 days
[2] = Oral bioavailability in macaques; design: species or system Macaca fascicularis; conditions: cynomolgus monkey, in vivo
Excerpt: ON-time represents lack of bradykinesia so mere improvement in bradykinesia would not be reflected in changes in ON-time. The oral bioavailability of the drug in these animals was only 1-2% so the lack of effect on ON-time is likely due to inadequate systemic exposure levels. Higher systemic levels of the drug may have a more profound effect on bradykinesia and which could translate into changes in ON-time.

[3] = system: L-DOPA naïve MPTP-lesioned macaques; assay: Monotherapy with Formula (i) in L-DOPA naïve MPTP-lesioned macaques; assay type: in vivo, Macaca fascicularis
Procedure: This activity is measured by an infra-red movement detector and captures all movement, normal and abnormal. MPTP-lesioned cynomolgus monkeys received acute oral administration of either vehicle or Formula (i) (1, 10 or 20 mg/kg) according to a randomized incomplete Latin Square-type. Levels of activity were assessed every minute over the entire 6 h observation. […] (FIG. 1A; time-course) or cumulated shown in FIG. 1B for 0-3 h; or FIG. 1C for 3-6 hr. N=8 for all treatment groups. */**/*** represents P<0.05, P<0.01 or P<0.001 cf. vehicle-treatment; 2-way RM ANOVA (FIG. 1A) or 1-way RM-ANOVA with Holm-Sidak's Multiple Comparison test (FIGS. 1B and C) (ns—not significant).
MPTP-lesioned cynomolgus monkeys received acute oral administration of either vehicle or Formula (i) (1, 10 or 20 mg/kg) according to a randomized incomplete Latin Square-type. Levels of bradykinesia were assessed every 10 min over the entire 6 h observation and total duration of ON-time (minutes for which bradykinesia was absent) was calculated. Data are mean±s.e.m. N=8 for all treatment groups. All P>0.05, cf vehicle-treatment; 1-way, RM-ANOVA with Holm-Sidak's Multiple Comparison test.
Parkinsonian disability is scored by a trained neurologist who is blinded to treatment allocation but is trained to differentiate normal from abnormal movements and is able to distinguish diminution of Parkinsonian disability from dyskinetic (abnormal) movements. MPTP-lesioned cynomolgus monkeys received acute oral administration of either vehicle or Formula (i) (1, 10 or 20 mg/kg) according to a randomized incomplete Latin Square-type. Levels of parkinsonian disability were assessed every 10 min over the entire 6 h observation. […] N=8 for all treatment groups. */P<0.05 cf. vehicle-treatment; 2-way RM ANOVA of ranked data (FIG. 5A) or 1-way RM-ANOVA with Holm-Sidak's Multiple Comparison test (FIGS. 5B and C).
Eight cynomolgus monkeys (Macaca fascicularis, 6.4-6.8 years of age, 2.8-4.2 kg were used in this study. Animals were housed two or three per cage in the same housing room. The housing rooms were subject to a 12 hour light-dark cycle (lights on 7 a.m.), temperature 20-25° C. in a room containing only animals of the same sex. Fresh fruit, primate pellets and water were available ad libitum other than at times of overnight fasting prior to PK or behavioral assessment days.
The animals were rendered parkinsonian via once-daily subcutaneous injection of MPTP (0.2 mg/kg), administered for between 9 and 12 days, until the appearance of parkinsonism symptoms. After this time, a parkinsonian syndrome reached a moderate to marked level, over approximately 30 days, and stabilized. […] L-DOPA naïve animals have received no L-DOPA and those showing established motor complication have received L-DOPA in an amount 25 mg/kg orally twice daily for at least 2 months. L-DOPA is given with the decarboxylase inhibitor benserazide (as Madopar™).

[4] = system: MPTP-lesioned cynomolgus macaques; assay: Acute DPI-289 in combination with low-dose L-DOPA, versus high-dose L-DOPA, in MPTP-lesioned macaques with L-DOPA-induced dyskinesia; assay type: in vivo, Macaca fascicularis
Excerpt: This study utilized female MPTP-lesioned cynomolgus macaques that have received chronic repeat-treatment with L-DOPA and manifested stable and reproducible dyskinesia, of choreic and dystonic nature, in response to subsequent L-DOPA-treatments. Eight cynomolgus monkeys (Macaca fascicularis, 7.6-13.1 years of age, 3.0-4.5 kg) were used in this study. In a prior experiment, for each individual animal a low and high dose of L-DOPA was established such that the low dose (LD1) provided modest anti-parkinsonian action (1-2 h) and elicited predominantly non-disabling dyskinesia, the high dose (LDh) provided the best anti-parkinsonian effect achievable but also elicited disabling dyskinesia and an anti-parkinsonian benefit of 2-3 h duration
The behavioral effects of acute DPI-289 administered in combination with low-dose L-DOPA (LD1) were assessed. Also higher dose of L-DOPA was also assessed without the addition of DPI-289. The low dose (LD1) was about 10 to 11 mg/kg of L-DOPA which is considered to be sub-optimal in terms of anti-parkinsonian benefit. The dose of DPI-289 was 20 mg/kg and the high dose of L-DOPA was about 30 to 31 mg/kg and considered to an optimal does in terms of anti-parkinsonian benefit but with disabling dyskinesia. The DPI-289 was administered one (1) hour prior to the L-DOPA and start of observation. Activity counts were collected and parkinsonian disability and dyskinesia was assessed via post-hoc analysis of video-recordings by a movement disorder neurologist blinded to treatment.
On the day before behavioral observations, food was removed overnight, from 5 p.m. On days of behavioral assessment, treatment was administered to the animals in their home cage at approximately 9 a.m. A 6 h period of observation then commenced 1 h after oral dosing.
The animals were rendered parkinsonian by once daily subcutaneous injection of 0.2 mg/kg MPTP, administered for 8-12 days, until the first appearance of parkinsonism symptoms. After this time, a parkinsonian syndrome reached a moderate to marked level, over approximately 30 days, and stabilized. Additional administrations of MPTP were given to some animals to titrate to similar degrees of parkinsonism in individuals across the group. […] Sixty days after commencing MPTP administration, L-DOPA (25 mg/kg) was administered orally twice daily for at least two months. L-DOPA was given with the decarboxylase inhibitor benserazide (as Madopar™). This treatment leads to the development of motor fluctuations, including dyskinesia.

[5] = 1, 10 or 20 mg/kg oral, Friedman test
[6] = any dose assessed (1, 10, 20 mg/kg oral)
[7] = DPI-289 20 mg/kg in combination with low-dose L-DOPA

## CCN(CC)C(=O)c1ccc(C(c2cccc(O)c2)N2C[C@@H](C)N(Cc3cccc(F)c3)C[C@@H]2C)cc1 (stereo partly drawn) [DPI-289, 4-((alpha-R)-alpha-((2S,5R)-2,5-Dimethyl-4-(3-fluorobenzyl)-1-piperazinyl)-3-hydroxybenzyl)-N,N-diethylbenzamide]
[1]
  dyskinesia (abnormal involuntary movements, AIMs): did not elicit dyskinesia
  postural asymmetry: reduced or reversed the postural asymmetry
[2]
  bioavailability: 1 to 2%
[3]; 1 mg/kg oral, 6 h observation
  total duration of ON-time (mean): 46 ± 48 min
[3]; 10 mg/kg oral, 1-2 h period of observation (2-3 h after treatment), P<0.01 cf. vehicle
  postural impairment level: absent-mild levels
[3]; 10 mg/kg oral, 1-2 h period of observation (2-3 h after treatment), P<0.05
  increase in activity counts cf. vehicle: 62%
[3]; 10 mg/kg oral, 1-2 h period of observation (2-3 h after treatment), P<0.05 cf. vehicle (mild-moderate levels)
  parkinsonian disability level: absent-mild levels
[3]; 10 mg/kg oral, 6 h observation
  total duration of ON-time (mean): 49 ± 48 min
[3]; 10 mg/kg oral, first four hours of observation (1-5 h after administration), P<0.05 cf. vehicle (moderate-marked levels)
  bradykinesia level: mild-moderate levels
[3]; 20 mg/kg oral, 1-2 h period of observation (2-3 h after treatment), P<0.01
  increase in activity counts cf. vehicle: 63%
[3]; 20 mg/kg oral, 2-3 h period of observation, P<0.05
  increase in activity counts cf. vehicle: 82%
[3]; 20 mg/kg oral, 6 h observation
  total duration of ON-time (mean): 1 ± 1 min
[3]; 1, 10 or 20 mg/kg oral, 6 h observation, listed as Formula (i)
  dyskinesia: did not evoke dyskinesia; also recorded: All zero values
[3]; 1, 10 or 20 mg/kg oral, Friedman P=0.031, post-hoc Dunn's all P>0.05
  average postural impairment cumulated 0-3 h: significant effect of Formula (i) treatment
[3]; 1, 10 or 20 mg/kg oral, Friedman P=0.034, post-hoc Dunn's all P>0.05
  average bradykinesia cumulated 0-3 h: significant effect of DPI-289 treatment
[3]; [5]
  average bradykinesia cumulated 3-6 h: no significant effects
  average parkinsonism cumulated over 0-3 h and 3-6 h: no significant effect
  average postural impairment cumulated 3-6 h: no significant effects
[3]; 1, 10 or 20 mg/kg oral, cf. vehicle
  average activity cumulated over 0-3 h and 3-6 h: no significant effect
[3]; [6]
  alertness: no increase in levels of alertness
  range of movement: no reduction in levels of impaired range of movement
  total duration of ON-time cf. vehicle: no significant increase in total duration of ON-time
[4]; [7]
  Good ON-time: comparable ‘good’ time as that of the high dose of L-DOPA
  alertness: improvement in alertness value that mirrored that of the high dose of L-DOPA
  parkinsonian disability: even and consistent level of fairly mild parkinsonian disability
  postural instability: reduced postural instability from about 2 to 6 hours after the dosing
  range of movement impairment: reduced range of movement impairment than low dose L-DOPA alone but this difference did not reach statistical significance
[4]; DPI-289 20 mg/kg in combination with low-dose L-DOPA (about 10 to 11 mg/kg), cf. high dose L-DOPA
  motor activity: extended activity into four and five hours
[4]; DPI-289 20 mg/kg in combination with low-dose L-DOPA, cf. low-dose L-DOPA alone
  dyskinesia: no additional dyskinesia
[4]; DPI-289 20 mg/kg in combination with low-dose L-DOPA, relative to high dose L-DOPA
  BAD ON-time (ON-time with disabling dyskinesia): considerably less of ‘bad’ time
[4]; DPI-289 20 mg/kg in combination with low-dose L-DOPA, three to six hours after dosing
  bradykinesia: same level of bradykinesia as that of the high dose of L-DOPA
[4]; DPI-289 20 mg/kg in combination with sub-therapeutic L-DOPA
  duration of effect on parkinsonian disability: at least 6 hours
